Measured values: patent publication US10487093B2, “Heterocyclic compounds, in particular 2-oxo-4,4,5,5,6,6,7,7-octahydrobenzoxazole derivatives, and their use as antibacterial compounds” (priority 2016, dated 2019)
≈ marks a conversion by molar mass, not a printed value.

Assays:
E. coli ATCC BAA-2452 = experiment: MIC, broth microdilution (CLSI) versus planktonic bacteria; format: cell-based; details: Escherichia coli ATCC BAA-2452; 16-20 h; mode of three independent experiments; read-out: MIC, Ec ATCC BAA 2452
[1] = system: Escherichia coli ATCC 25922; experiment: as above; format: cell-based; details: ATCC25922; Escherichia coli ATCC 25922; 16-20 h; mode of three independent experiments; read-out: MIC, Ec ATCC 25922
[2] = system: Staphylococcus aureus ATCC 29213; experiment: as above; format: cell-based; details: ATCC29213; Staphylococcus aureus ATCC 29213; 16-20 h; mode of three independent experiments; read-out: MIC, Sa ATCC 29213
[3] = system: human hepatic cell line (HepG2 ATCC HB-8065); experiment: Human cell viability assay (CellTiter-Glo); details: Homo sapiens, HepG2, 24 h, read-out: IC50 (μg/mL) HepG2
[4] = system: Acinetobacter baumannii ATCC 19606; experiment: MIC, broth microdilution (CLSI) versus planktonic bacteria; format: cell-based; details: ATCC19606; Acinetobacter baumannii ATCC 19606; 16-20 h; mode of three independent experiments; read-out: MIC, Ab ATCC 19606
[5] = system: Pseudomonas aeruginosa ATCC 27853; experiment: as above; format: cell-based; details: ATCC27853; Pseudomonas aeruginosa ATCC 27853; 16-20 h; mode of three independent experiments; read-out: MIC, Pa ATCC 27853
[6] = system: Streptococcus pneumoniae ATCC 49619; experiment: as above; format: cell-based; details: ATCC49619; Streptococcus pneumoniae ATCC 49619; 16-20 h; mode of three independent experiments; read-out: MIC, Sp ATCC 49619
E. coli MG1655 S83L = format: cell-based, Escherichia coli; details: compared to the isogenic parent strain E. coli MG1655; S83L mutation on DNA gyrase subunit GyrA
[7] = system: Haemophilus influenzae ATCC 49247; experiment: MIC, broth microdilution (CLSI) versus planktonic bacteria; format: cell-based; details: ATCC49247; Haemophilus influenzae ATCC 49247; 16-20 h; mode of three independent experiments; read-out: MIC, Hi ATCC 49247
E. coli NCTC 13476 = experiment: as above; format: cell-based; details: NCTC13476; Escherichia coli NCTC 13476; 16-20 h; mode of three independent experiments; read-out: MIC, Ec NCTC 13476
E. coli MG1655 = experiment: as above; format: cell-based, Escherichia coli; details: Escherichia coli, MG1655, read-out: MIC, Ec MG1655 WT
[8] = system: Acinetobacter baumannii NCTC 13420; experiment: as above; format: cell-based; details: NCTC13420; Acinetobacter baumannii NCTC 13420; 16-20 h; mode of three independent experiments; read-out: MIC, Ab NCTC 13420
E. coli MG1655 D87G = format: cell-based, Escherichia coli; details: compared to the isogenic parent strain E. coli MG1655; D87G mutation on DNA gyrase subunit GyrA
[9] = system: Enterobacter cloacae NCTC 13406; experiment: MIC, broth microdilution (CLSI) versus planktonic bacteria; format: cell-based; details: NCTC13406; Enterobacter cloacae NCTC 13406; 16-20 h; mode of three independent experiments; read-out: MIC, Ecl NCTC 13406

SMILES | MIC (E. coli ATCC BAA-2452) | MIC [1] | MIC [2] | IC50 [3] | MIC [4] | MIC [5] | MIC [6] | Fold increase in MIC, E. coli MG1655 S83L (E. coli MG1655 S83L) | MIC [7] | MIC (E. coli NCTC 13476) | MIC (E. coli MG1655) | MIC [8] | Fold increase in MIC, E. coli MG1655 D87G (E. coli MG1655 D87G) | MIC [9]
O=C1COc2ccc(N3C(=O)O[C@@H]4C[C@H](NCCCn5c(=O)cnc6cc(F)c(F)cc65)CC[C@H]43)nc2N1 [Compound 88, 1-(3-{[(3aR,6R,7aR)-2-oxo-3-{3-oxo-2H,3H,4H-pyrido[3,2-b][1,4]oxazin-6-yl}-octahydro-1,3-benzoxazol-6-yl]amino}propyl)-6,7-difluoro-1,2-dihydroquinoxalin-2-one] | < 1 µg/mL | < 1 µg/mL | < 1 µg/mL | 10 to 100 µg/mL (≈ 19 to 190 µM) | < 1 µg/mL | 1 to 10 µg/mL (≈ 1.9 to 19 µM) | < 1 µg/mL | 2 fold | < 1 µg/mL | < 1 µg/mL | < 1 µg/mL | < 1 µg/mL | 1 fold | < 1 µg/mL
N#Cc1ccc2ncc(=O)n(CCN[C@H]3CC[C@H]4[C@@H](C3)OC(=O)N4c3ccc4c(n3)NC(=O)CO4)c2c1 [Compound 31, 4-(2-{[(3aS,6S,7aR)-2-oxo-3-{3-oxo-2H,3H,4H-pyrido[3,2-b][1,4]oxazin-6-yl}-octahydro-1,3-benzoxazol-6-yl]amino}ethyl)-3-oxo-3,4-dihydroquinoxaline-6-carbonitrile] | < 1 µg/mL | < 1 µg/mL | < 1 µg/mL | > 100 µg/mL | < 1 µg/mL | 1 to 10 µg/mL (≈ 1.99 to 19.9 µM) | < 1 µg/mL | 1 fold | < 1 µg/mL | 1 to 10 µg/mL (≈ 1.99 to 19.9 µM) | < 1 µg/mL | < 1 µg/mL | 2 fold | < 1 µg/mL
O=C1COc2ccc(N3C(=O)O[C@H]4C[C@@H](NCCCn5c(=O)cnc6ccc(F)cc65)CC[C@@H]43)nc2N1 [Compound 92, 1-(3-{[(3aS,6S,7aS)-2-oxo-3-{3-oxo-2H,3H,4H-pyrido[3,2-b][1,4]oxazin-6-yl}-octahydro-1,3-benzoxazol-6-yl]amino}propyl)-7-fluoro-1,2-dihydroquinoxalin-2-one] | < 1 µg/mL | < 1 µg/mL | < 1 µg/mL | > 100 µg/mL | < 1 µg/mL | < 1 µg/mL | < 1 µg/mL | 1 fold | < 1 µg/mL | < 1 µg/mL | < 1 µg/mL | < 1 µg/mL | 1 fold | < 1 µg/mL
COc1ccc2ccc(=O)n(CCN(CCO)[C@H]3CC[C@H]4[C@@H](C3)OC(=O)N4c3ccc4c(n3)NC(=O)CO4)c2n1 [Compound 7, 1-(2-{[(3aS,6S,7aR)-2-oxo-3-{3-oxo-2H,3H,4H-pyrido[3,2-b][1,4]oxazin-6-yl}-octahydro-1,3-benzoxazol-6-yl](2-hydroxyethyl)amino}ethyl)-7-methoxy-1,2-dihydro-1,8-naphthyridin-2-one] | 1 to 10 µg/mL (≈ 1.82 to 18.2 µM) | < 1 µg/mL | < 1 µg/mL | > 100 µg/mL | 1 to 10 µg/mL (≈ 1.82 to 18.2 µM) | 1 to 10 µg/mL (≈ 1.82 to 18.2 µM) | < 1 µg/mL | 1 fold | 1 to 10 µg/mL (≈ 1.82 to 18.2 µM) | 1 to 10 µg/mL (≈ 1.82 to 18.2 µM) | < 1 µg/mL | < 1 µg/mL | 1 fold | 1 to 10 µg/mL (≈ 1.82 to 18.2 µM)
O=C1COc2ccc(N3C(=O)O[C@H]4C[C@@H](NCCn5c(=O)ccc6nccnc65)CC[C@@H]43)nc2N1 [Compound 100, (3aS,6S,7aS)-3-{3-oxo-2H,3H,4H-pyrido[3,2-b][1,4]oxazin-6-yl}-6-[(2-{6-oxo-5H,6H-pyrido[2,3-b]pyrazin-5-yl}ethyl)amino]-octahydro-1,3-benzoxazol-2-one] | 1 to 10 µg/mL (≈ 2.09 to 20.9 µM) | < 1 µg/mL | < 1 µg/mL | > 100 µg/mL | 1 to 10 µg/mL (≈ 2.09 to 20.9 µM) | 10 to 100 µg/mL (≈ 20.9 to 209 µM) | < 1 µg/mL | 1 fold | < 1 µg/mL | 1 to 10 µg/mL (≈ 2.09 to 20.9 µM) | < 1 µg/mL | < 1 µg/mL | 1 fold | 1 to 10 µg/mL (≈ 2.09 to 20.9 µM)
N#Cc1ccc2ncc(=O)n(CCN[C@H]3CC[C@H]4[C@H](C3)OC(=O)N4c3ccc4c(n3)NC(=O)CO4)c2c1 [Compound 64, 4-(2-{[(3aS,6S,7aS)-2-oxo-3-{3-oxo-2H,3H,4H-pyrido[3,2-b][1,4]oxazin-6-yl}-octahydro-1,3-benzoxazol-6-yl]amino}ethyl)-3-oxo-3,4-dihydroquinoxaline-6-carbonitrile] | < 1 µg/mL | < 1 µg/mL | < 1 µg/mL | 10 to 100 µg/mL (≈ 19.9 to 199 µM) | 1 to 10 µg/mL (≈ 1.99 to 19.9 µM) | 1 to 10 µg/mL (≈ 1.99 to 19.9 µM) | < 1 µg/mL | 0.5 fold | < 1 µg/mL | 1 to 10 µg/mL (≈ 1.99 to 19.9 µM) | < 1 µg/mL | < 1 µg/mL | 1 fold | < 1 µg/mL
COc1cnc2ccc(=O)n(CCN[C@H]3CC[C@H]4[C@@H](C3)OC(=O)N4c3ccc4c(n3)NC(=O)CO4)c2c1 [Compound 30, 1-(2-{[(3aS,6S,7aR)-2-oxo-3-{3-oxo-2H,3H,4H-pyrido[3,2-b][1,4]oxazin-6-yl}-octahydro-1,3-benzoxazol-6-yl]amino}ethyl)-7-methoxy-1,2-dihydro-1,5-naphthyridin-2-one] | < 1 µg/mL | < 1 µg/mL | < 1 µg/mL | > 100 µg/mL | 1 to 10 µg/mL (≈ 1.97 to 19.7 µM) | < 1 µg/mL | < 1 µg/mL | 2 fold | < 1 µg/mL | < 1 µg/mL | < 1 µg/mL | < 1 µg/mL | 2 fold | 1 to 10 µg/mL (≈ 1.97 to 19.7 µM)
N#Cc1ccc2ccc(=O)n(CCN[C@H]3CC[C@H]4[C@@H](C3)OC(=O)N4c3ccc4c(n3)NC(=O)CO4)c2c1 [Compound 14, 1-(2-{[(3aS,6S,7aR)-2-oxo-3-{3-oxo-2H,3H,4H-pyrido[3,2-b][1,4]oxazin-6-yl}-octahydro-1,3-benzoxazol-6-yl]amino}ethyl)-2-oxo-1,2-dihydroquinoline-7-carbonitrile] | < 1 µg/mL | < 1 µg/mL | < 1 µg/mL | > 100 µg/mL | < 1 µg/mL | < 1 µg/mL | < 1 µg/mL | 2 fold | < 1 µg/mL | < 1 µg/mL | < 1 µg/mL | < 1 µg/mL | 2 fold | < 1 µg/mL
COc1ccc2ccc(=O)n(CCN[C@@H]3CC[C@@H]4[C@@H](C3)OC(=O)N4c3ncc4c(n3)NC(=O)CO4)c2n1 [Compound 44, 1-(2-{[(3aR,6R,7aR)-2-oxo-3-{7-oxo-6H,7H,8H-pyrimido[5,4-b][1,4]oxazin-2-yl}-octahydro-1,3-benzoxazol-6-yl]amino}ethyl)-7-methoxy-1,2-dihydro-1,8-naphthyridin-2-one] | < 1 µg/mL | < 1 µg/mL | < 1 µg/mL | > 100 µg/mL | < 1 µg/mL | 1 to 10 µg/mL (≈ 1.97 to 19.7 µM) | < 1 µg/mL | 2 fold | < 1 µg/mL | 1 to 10 µg/mL (≈ 1.97 to 19.7 µM) | < 1 µg/mL | < 1 µg/mL | 2 fold | < 1 µg/mL
